Laboratory results as given in US9789102B2, “H3 receptor antagonist for use in the treatment of alzheimer's disease” (SANOFI, priority 2012, dated 2017).

Experiments:
[1] = system: tau phosphorylation on AD2 epitope (pSer396-pSer404); experiment: Western blot of tau phosphorylation on AD-2 epitope after six months in food (Example 3); format: in vivo, THY-Tau22 mice; conditions: 0.0034% in food
Description: 2-(Cyclohexylmethyl)-N-{2-[(2S)-1-methylpyrrolidin-2-yl]ethyl}-1,2,3,4-tetrahydroisoquinoline-7-sulfonamide difumarate monohydrate was administrated as a supplement in food at doses of 0.00034%, 0.0034% and 0.034% for six months in THY-Tau22 and wild type mice as follows: • Tg Veh (n=17) • Tg Active Ingredient—0.034% (n=17) • Tg Active Ingredient—0.0034% (n=17) • Tg Active Ingredient—0.00034% (n=17) • WT Veh (n=17) • WT Active Ingredient—0.034% (n=17) • WT Active Ingredient—0.0034% (n=17) • WT Active Ingredient—0.00034% (n=17) • WT groups treated with Active Ingredient are not used in the biochemical and histological studies.
For immunoblot analysis, frozen mouse tissues (either hippocampus or cortex) were homogenized using a Precellys 24 tissue homogenizer in 350 μl RIPA buffer from Cell Signaling (20 mM Tris-HCl (pH 7.5), 150 mM NaCl, 1 mM Na2 EDTA, 1 mM EGTA, 1% NP-40, 1% sodium deoxycholate, 2.5 mM sodium pyrophosphate, 1 mM beta-glycerophosphate, 1 mM Na3VO4, 1 μg/ml leupeptin) to which proteases inhibitors (Sigma cocktail 1% v/v) and phosphatases inhibitors (okadaic acid 1 μM, sodium fluoride 100 mM) were added. After centrifugation, 16000×g 4° C. for 10 minutes, protein content in supernatants was determined with BioRad DC Protein Assay kit, using BSA as a standard. Equal amounts of protein (5 μg) were loaded on 15-well 4-12% Bis-Tris gels (NuPAGE, Invitrogen) and electrophoresis was performed at 200V for 50 minutes in MOPS buffer according to the manufacturer's instructions. […] Tau protein was detected using the following mouse antibody: AD-2 1/20.000^e (Biorad, 56484) which recognizes tau protein phosphorylated on Ser396 and Ser404. […]
Following incubation with primary antibodies, blots were rinsed in TBS Tween 0.1% and incubated for 1 hour at room temperature in an anti-mouse IgG horseradish peroxidase (HRP)-linked secondary antibody 1/10,000^e (GE healthcare, NA9310) diluted in 5% non-fat dry milk in TBS Tween 0.1%. […] Quantification of immunoreactive signal was performed using Multigauge V3.0 software (FUJIFILM). […]

[2] = system: THY-Tau22 transgenic mice; experiment: Cognitive deficits after 6 months of treatment; format: in vivo; conditions: clinically relevant doses

CN1CCC[C@H]1CCNS(=O)(=O)c1ccc2c(c1)CN(CC1CCCCC1)CC2 [2-(cyclohexylmethyl)-N-{2-[(2S)-1-methylpyrrolidin-2-yl]ethyl}-1,2,3,4-tetrahydroisoquinoline-7-sulfonamide difumarate monohydrate]
protein tau phosphorylation on AD-2 epitope in hippocampus, vs vehicle ([1]; THY-Tau22 mice): statistical significant decrease | inhibition of tau phosphorylation at the AD-2 epitope, cortex ([1]; Western blot, non-significant, p=0.1807): −57% | inhibition of tau phosphorylation at the AD-2 epitope, hippocampus ([1]; Western blot, p=0.0229 vs vehicle): −37% | cognitive deficits [2]: decreases cognitive deficits
